Results on three molecules are retold here after publication PMC9806268, “Overlapping activation pattern of bitter taste receptors affect sensory adaptation and food perception” (Frontiers in Nutrition, 2022).

Like-named read-outs stand apart in the source and are kept apart here.

What all share (experiment): Fluo-4 calcium mobilization assay (FLIPR), stable inducible cells
Holding throughout (type): cell-based

One assay has as its target T1, TAS2R46 (Homo sapiens, UniProt P59540).
T1 construct: cDNA in pcDNA5/FRT/TO
T1 sequence (P59540 1-309): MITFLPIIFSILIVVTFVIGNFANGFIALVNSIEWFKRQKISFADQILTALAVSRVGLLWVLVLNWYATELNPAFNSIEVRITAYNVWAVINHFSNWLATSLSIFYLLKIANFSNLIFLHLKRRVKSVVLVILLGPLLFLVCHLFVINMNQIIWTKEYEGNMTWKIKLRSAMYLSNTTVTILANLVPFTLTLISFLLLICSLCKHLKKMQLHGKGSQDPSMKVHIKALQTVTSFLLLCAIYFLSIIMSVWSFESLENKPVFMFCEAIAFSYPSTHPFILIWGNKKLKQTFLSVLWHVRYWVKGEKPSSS
The source says:
Fluo-4 calcium mobilization assay (FLIPR), stable inducible cells on TAS2R46

In another assay the target is T2, TAS2R43 (Homo sapiens, UniProt P59537).
T2 sequence (P59537 1-309): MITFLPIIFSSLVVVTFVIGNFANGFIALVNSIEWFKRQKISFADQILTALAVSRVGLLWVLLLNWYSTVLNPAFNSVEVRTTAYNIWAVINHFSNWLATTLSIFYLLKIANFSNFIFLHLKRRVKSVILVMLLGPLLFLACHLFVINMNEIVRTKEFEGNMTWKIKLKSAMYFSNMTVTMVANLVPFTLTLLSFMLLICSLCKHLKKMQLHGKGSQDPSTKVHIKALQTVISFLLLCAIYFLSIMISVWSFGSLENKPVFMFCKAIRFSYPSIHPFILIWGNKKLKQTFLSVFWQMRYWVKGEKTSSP
The note with it: for EC50: read-out: TAS2R43 / EC50-conc. From the text: Fluo-4 calcium mobilization assay (FLIPR), stable inducible cells on TAS2R43

The target of another assay is T3, TAS2R14 (Homo sapiens, UniProt Q9NYV8).
T3 sequence (Q9NYV8 1-317): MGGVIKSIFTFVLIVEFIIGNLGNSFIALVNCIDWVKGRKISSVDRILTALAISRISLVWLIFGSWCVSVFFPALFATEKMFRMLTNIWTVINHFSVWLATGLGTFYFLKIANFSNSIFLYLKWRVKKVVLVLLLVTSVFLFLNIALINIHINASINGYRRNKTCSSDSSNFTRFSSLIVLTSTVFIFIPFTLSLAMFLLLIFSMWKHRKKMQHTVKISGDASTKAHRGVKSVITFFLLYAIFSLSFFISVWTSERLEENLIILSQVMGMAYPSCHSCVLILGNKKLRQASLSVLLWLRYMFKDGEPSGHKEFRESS
The note with it: agonist; C1 buffer pH 7.4; non-induced cells subtracted. The source says:
Fluo-4 calcium mobilization assay (FLIPR), stable inducible cells on TAS2R14

The mark [1] stands for this setting: agonist, C1 buffer pH 7.4, non-induced cells subtracted.

Consider `C=C1C(=O)O[C@@H]2[C@H]3C(CO)=CC(=O)C3=C(C)C[C@H](O)[C@@H]12` [lactucin], for which the EC50 is 8.85 ± 1.17 µM on TAS2R46 (read-out: TAS2R46 / EC50-conc.) and 14.9 ± 2.5 µM at TAS2R43. For the same molecule, the “TAS2R14 / Threshold” value at TAS2R14 was determined as 100 µM.
Consider `CC1=C2C(=O)C=C(CO)[C@@H]2[C@H]2OC(=O)[C@@H](C)[C@@H]2[C@@H](O)C1` [11β,13-dihydrolactucin], for which, on TAS2R46 (setting [1]), the “TAS2R46 / Threshold” value came to 30 µM. The TAS2R43 threshold on TAS2R43 (setting [1]) stood at 10 µM. For the same molecule, the “TAS2R14 / Threshold” value at TAS2R14 was 100 µM.
lactucopicrin: the EC50 at TAS2R43 (setting [1]) was 0.46 ± 0.08 µM. In addition, on TAS2R14, the “TAS2R14 / Threshold” value came out at 30 µM.
